# Where a name gives a salt, the structure may show the parent alone.
# Test system: STING activation (IFNβ release) in iBMDMs
# Experiment: IFNβ release ELISA after STING ligand (or LPS) stimulation, iBMDMs
# Type: cell-based, mouse
# Details: iBMDMs; 3′3′-cGAMP 10 μg/ml, 16 hours; compound 10 μM
# In short: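 IFNβ released into the medium was quantified by ELISA (mouse or human kit) after iBMDM stimulation with the canonical STING agonist 3′3′-cGAMP or with LPS.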
SMILES,fold increase in IFN-β release,3′3′-cGAMP-induced IFNβ release
COc1ccc2c(c1)C(=O)N(CCc1ccc(S(=O)(=O)NC(=O)NC3CCCCC3)cc1)C(=O)C2(C)C [Gliquidone],1.20 fold,–
COc1ccc2c(c1)c(C1=C(c3c[nH]c4ccccc34)C(=O)NC1=O)cn2CCCN(C)C [Go 6983],0.26 fold,–
Fc1cc(F)c2c(c1)C1C=CCC1C(c1cccnc1)N2 (stereo not drawn) [Golgicide A],4.19 fold,–
Cl.Cl.O=S(=O)(NCCNC/C=C/c1ccc(Br)cc1)c1cccc2cnccc12 [H 89 2HCl],1.91 fold,–
CCOC(=O)C1=C(N)Oc2ccc(Br)cc2C1C(C#N)C(=O)OCC (stereo not drawn) [HA14-1],0.45 fold,–
CC(C)c1ccc(NC(=O)Cn2cnc3c2c(=O)n(C)c(=O)n3C)cc1 [HC-030031],1.05 fold,–
Cc1cc(C)c(S(=O)(=O)n2cc(C)cc2C)c(C)c1 [HJC0350],1.05 fold,–
COc1cc2c(cc1-c1c(C)noc1C)ncc1[nH]c(=O)n([C@H](C)c3ccccn3)c12 [I-BET151 (GSK1210151A)],0.40 fold,–
O=C1[C@H](Cc2ccc(O)cc2)N2C(=O)CCN(C(=O)NCc3ccccc3)[C@H]2CN1Cc1cccc2ccccc12 [ICG-001],0.10 fold,–
O=C(c1ccc(Nc2nccc(-c3cc4ccccc4s3)n2)cc1)N1CCC(N2CCCC2)CC1 [IKK-16 (IKK Inhibitor VII)],1.16 fold,–
O=C(Nc1cc(C(F)(F)F)cc(C(F)(F)F)c1)c1cc(Cl)ccc1O [IMD 0354],0.86 fold,–
O=C(O)CNC(=O)c1c(O)c2ccccc2n(Cc2ccccc2)c1=O [IOX2],0.44 fold,–
Oc1ccc2ccccc2c1SSc1c(O)ccc2ccccc12 [IPA-3],0.35 fold,–
Cc1ccc2nc(NC(=O)CSc3nc4c(c(=O)n3-c3ccccc3)SCC4)sc2c1 [IWP-2],3.84 fold,–
"C=CC(=O)N1CCC[C@@H](n2nc(-c3ccc(Oc4ccccc4)cc3)c3c(N)ncnc32)C1 [Ibrutinib (PCI-32765), Ibrutinib]",0.53 fold,–
C#Cc1cccc(Nc2ncnc3cc4c(cc23)OCCOCCOCCO4)c1 [Icotinib],0.57 fold,–
"CNC(=O)[C@H](Cc1c[nH]c2ccccc12)NC(=O)[C@@H](CC(=O)NO)CC(C)C [Ilomastat (GM6001, Galardin), Ilomastat]",1.81 fold,–
"Cc1ccc(NC(=O)c2ccc(CN3CCN(C)CC3)cc2)cc1Nc1nccc(-c2cccnc2)n1 [Imatinib (STI571), Imatinib]",1.04 fold,–
CCOC(=O)[C@H](CCc1ccccc1)N[C@@H](C)C(=O)N1C(=O)N(C)C[C@H]1C(=O)O [Imidapril HCl],3.20 fold,–
"NC(=O)c1ccc(I)c([N+](=O)[O-])c1 [Iniparib (BSI-201), Iniparib]",0.23 fold,–
CCc1c2c(nc3ccc(OC(=O)N4CCC(N5CCCCC5)CC4)cc13)-c1cc3c(c(=O)n1C2)COC(=O)[C@]3(O)CC [Irinotecan],1.13 fold,–

SMILES,fold increase in IFN-β release,3′3′-cGAMP-induced IFNβ release
CC1=C(/C=C/C(C)=C/C=C/C(C)=C\C(=O)O)C(C)(C)CCC1 [Isotretinoin],0.10 fold,–
"Cc1ccc(C(=O)N(CCCN)[C@@H](c2nc3cc(Cl)ccc3c(=O)n2Cc2ccccc2)C(C)C)cc1 [Ispinesib (SB-715992), Ispinesib]",2.12 fold,–
CCn1c(=O)c2c(nc(/C=C/c3ccc(OC)c(OC)c3)n2C)n(CC)c1=O [Istradefylline],1.90 fold,–
"CC(C)(C)c1cc(C(C)(C)C)c(NC(=O)c2c[nH]c3ccccc3c2=O)cc1O [Ivacaftor (VX-770), Ivacaftor]",1.27 fold,–
O=C(Nc1ccccc1)N1CCN(c2nc(-c3ccccc3)ns2)CC1 [JNJ-1661010],1.03 fold,–
N#Cc1c(NC(=O)c2cccc3ccccc23)sc2c1CCCC2 [JNK Inhibitor IX],0.53 fold,–
Cc1ccc(NCCCc2ccccc2)c(N)c1 [JSH-23],2.80 fold,–
COc1cc(-c2ncn(/C=C\C(=O)OC(C)C)n2)cc(C(F)(F)F)c1 [KPT-185],0.59 fold,–
O=C(/C=C\n1cnc(-c2cc(C(F)(F)F)cc(C(F)(F)F)c2)n1)N1CC(F)(F)C1 [KPT-276],0.54 fold,–
O=c1cc(-c2cccc3c2Sc2ccccc2S3)oc(N2CCOCC2)c1 [KU-55933 (ATM Kinase Inhibitor)],0.33 fold,–
COC(=O)CCSCc1ccc(-c2onc(C)c2NC(=O)OC(C)c2ccccc2Cl)cc1 (stereo not drawn) [Ki16198],0.51 fold,–
Cc1noc(-c2ccc(CSCCC(=O)O)cc2)c1NC(=O)OC(C)c1ccccc1Cl (stereo not drawn) [Ki16425],1.41 fold,–
O=C(c1cn(Cc2cncn2Cc2ccc(Br)cc2)cc1-c1cccc2ccccc12)N1CCOCC1 [LB42708],1.35 fold,–
COc1ccccc1-c1cc(Nc2cccc(CS(N)(=O)=O)c2)ncn1 [LDC000067],1.43 fold,–
"Cc1c(C(=O)Nc2ccc(N3C[C@@H](C)O[C@@H](C)C3)nc2)cccc1-c1ccc(OC(F)(F)F)cc1 [LDE225 (NVP-LDE225, Erismodegib), Erismodegib]",1.31 fold,–
c1cc(-c2cnn3cc(-c4ccc(N5CCNCC5)cc4)cnc23)c2cccnc2c1 [LDN-212854],0.33 fold,–
C[C@H](NC(=O)[C@@H](O)c1cc(F)cc(F)c1)C(=O)N[C@@H]1C(=O)N(C)c2ccccc2-c2ccccc21 [LY411575],0.26 fold,–
Cc1cccc(-c2nn3c(c2-c2ccnc4ccc(C(N)=O)cc24)CCC3)n1 [LY2157299],2.50 fold,–
CC(C)(C)Cn1c(N)nc2ccc(-c3[nH]c(C(C)(C)C)nc3-c3ccc(F)cc3)nc21 [LY2228820],5.15 fold,–
Cc1cnc(NC(=O)Nc2cc(Br)c(C)cc2OC[C@@H]2CNCCO2)cn1 [LY2603618],1.08 fold,–
Cc1cc(Nc2cc(CN3CCOCC3)c3nc(C)c(Cc4ccc(Cl)cc4F)n3n2)n[nH]1 [LY2784544],2.09 fold,–

SMILES,fold increase in IFN-β release,3′3′-cGAMP-induced IFNβ release
CC(CCc1ccccc1)NCC(O)c1ccc(O)c(C(N)=O)c1 (stereo not drawn) [Labetalol HCl],2.96 fold,–
O=C(C[S+]([O-])Cc1ccco1)NC/C=C\COc1cc(CN2CCCCC2)ccn1 (stereo not drawn) [Lafutidine],2.85 fold,–
"Nc1cccc2c1CN(C1CCC(=O)NC1=O)C2=O (stereo not drawn) [Lenalidomide (CC-5013), Lenalidomide]",1.09 fold,–
N#Cc1ccc(C(c2ccc(C#N)cc2)n2cncn2)cc1 [Letrozole],0.61 fold,–
CCN1CCC[C@H]1CNC(=O)c1cc(S(N)(=O)=O)ccc1OC [Levosulpiride],1.91 fold,–
CCN(CC)CC(=O)Nc1c(C)cccc1C [Lidocaine],9.58 fold,promoted
CC#CCn1c(N2CCC[C@@H](N)C2)nc2c1c(=O)n(Cc1nc(C)c3ccccc3n1)c(=O)n2C [Linagliptin],2.07 fold,–
Nc1nc(OCc2cc(Br)cs2)c2[nH]cnc2n1 [Lomeguatrib],1.27 fold,–
CCOC(=O)N1CCC(=C2c3ccc(Cl)cc3CCc3cccnc32)CC1 [Loratadine],3.65 fold,–
"CCCCc1nc(Cl)c(CO)n1Cc1ccc(-c2ccccc2-c2nn[nH]n2)cc1 [Losartan Potassium (DuP 753), Losartan Potassium]",1.35 fold,–
"Cc1c(F)cc(C(=O)NC2CC2)cc1-c1ccc(C(=O)NCC(C)(C)C)cn1 [Losmapimod (GW856553X), Losmapimod]",1.20 fold,–
CC[C@H](C)C(=O)O[C@H]1C[C@@H](C)C=C2C=C[C@H](C)[C@H](CC[C@@H]3C[C@@H](O)CC(=O)O3)[C@H]21 [Lovastatin],1.22 fold,–
"CC(C)CCNC(=O)[C@H](CC(C)C)NC(=O)[C@H]1O[C@@H]1C(=O)O [Loxistatin Acid (E-64C), Loxistatin Acid]",0.70 fold,–
C=CCn1c(=O)c2cnc(Nc3ccc(N4CCN(C)CC4)cc3)nc2n1-c1cccc(C(C)(C)O)n1 [MK-1775],4.54 fold,–
Cl.Cl.NC1(c2ccc(-c3nc4ccn5c(=O)[nH]nc5c4cc3-c3ccccc3)cc2)CCC1 [MK-2206 2HCl],1.02 fold,–
C[C@](O)(COc1ccc(C#N)cc1)C(=O)Nc1ccc(C#N)c(C(F)(F)F)c1 [MK-2866 (GTx-024)],1.47 fold,–
O=C(O)Cn1nnc(-c2cc(N3CCC(Oc4cc(F)ccc4Br)CC3)no2)n1 [MK-8245],0.42 fold,–
COc1ccc(CNCc2cccc3ccccc23)cc1.Cl [ML133 HCl],0.59 fold,–
CCCC(=O)Nc1cccc(NC(=O)c2ccccc2Br)c1 [ML161],0.95 fold,–

# Same assay, conditions: iBMDMs; 3′3′-cGAMP 10 μg/ml, 16 hours; compound 10 μM; HCl Trihydrate
row,SMILES,fold increase in IFN-β release
1,CCc1c2c(nc3ccc(OC(=O)N4CCC(N5CCCCC5)CC4)cc13)-c1cc3c(c(=O)n1C2)COC(=O)[C@]3(O)CC [Irinotecan HCl Trihydrate],0.51 fold
